The text below walks through data of paper PMC9611521, “Optimization of Resveratrol Used as a Scaffold to Design Histone Deacetylase (HDAC-1 and HDAC-2) Inhibitors” (Pharmaceuticals, 2022).

SMILES strings stand for the structures.

Usually inhibition stands for how much of the control response was suppressed. High values mean a strong effect, low ones a weak effect. For orientation: IC50 means the concentration that gives 50% inhibition. A higher IC50 goes with a need for much substance.

Type in all cases: biochemical
Test [1] has as its target HDAC-2 (Homo sapiens, UniProt Q92769). Kind of test: Enzymatic HDAC inhibition assay (fluorescence), HDAC-2. Here is the method: (§1) Enzymatic assays to evaluate HDAC inhibition were performed, and the design involved three steps: (a) Preliminary screening to identify the most promising compounds; (b) Evaluation by a panel of HDAC isoforms to investigate selectivity; and (c) Determination of IC50 values. Firstly, compounds (4–7; 15–26) were evaluated at 10 µM against HDAC-1 and HDAC-2 (Table 2).
(§2) The enzymatic assay to evaluate HDAC inhibitory effects for all final compounds against the distinct isoforms was carried out in accordance with the previously described procedures (Lopes et al., 2021). All compounds were initially screened at 10 µM against HDAC-1 and HDAC-2. […] All the compounds were dissolved in DMSO. A serial dilution of the compounds was performed in 100% DMSO with the highest concentration at 1 mM. Each intermediate compound dilution (in 100% DMSO) was diluted 10x in assay buffer to form a 10% DMSO intermediate dilution in HDAC assay buffer. 5 µL of this dilution was added to a 50 µL reaction to bring the final concentration of DMSO to 1% in all the reactions. Three independent experiments were carried out in triplicate for all experiments. The fluorescence intensity was measured at an excitation of 360 nm and emission of 460 nm using a Tecan Infinite M1000 microplate reader, and the percentage of activity was calculated using the formula: % activity = (F − Fb)/(Ft − Fb), where F = the intensity of fluorescence in the presence of the compound. In the absence of the test compound, the fluorescent intensity (Ft) in each dataset was defined as 100% activity, while in the absence of HDAC, the fluorescent intensity (Fb) in each dataset was set to 0% activity.

Test [2] deals with HDAC-3 (Homo sapiens, UniProt O15379). Kind of test: Enzymatic HDAC selectivity panel, HDAC-3. The following applies: compound at 10 µM. As to the method: as §1
Chain of HDAC-3 (O15379 whole entry): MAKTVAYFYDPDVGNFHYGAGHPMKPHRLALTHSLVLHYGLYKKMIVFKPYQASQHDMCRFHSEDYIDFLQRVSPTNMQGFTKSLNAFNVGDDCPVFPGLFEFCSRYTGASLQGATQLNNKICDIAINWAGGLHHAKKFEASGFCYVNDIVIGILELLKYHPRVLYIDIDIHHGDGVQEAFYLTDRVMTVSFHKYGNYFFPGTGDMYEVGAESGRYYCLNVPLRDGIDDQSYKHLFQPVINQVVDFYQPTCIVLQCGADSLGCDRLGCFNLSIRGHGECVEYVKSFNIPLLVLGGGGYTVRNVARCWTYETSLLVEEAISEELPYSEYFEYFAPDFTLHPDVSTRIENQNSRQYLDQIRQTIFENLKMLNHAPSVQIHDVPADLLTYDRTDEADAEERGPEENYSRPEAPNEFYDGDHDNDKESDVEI
Chain of HDAC-3 (Q9Y618 395-489 partner limits assumed): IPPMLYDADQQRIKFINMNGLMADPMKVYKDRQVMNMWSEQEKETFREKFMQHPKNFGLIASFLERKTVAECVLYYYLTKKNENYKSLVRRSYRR
as §2, with “Three independent experiments were carried out in triplicate for all experiments.” left out, “In the absence of the test compound, the fluorescent intensity (Ft) in each dataset was defined as 100% activity, while in the absence of HDAC, the fluorescent intensity (Fb) in each dataset was set to 0% activity.” left out

Test [3] addresses T1, HDAC-6 (Homo sapiens, UniProt Q9UBN7).
T1 sequence (Q9UBN7 1-1215): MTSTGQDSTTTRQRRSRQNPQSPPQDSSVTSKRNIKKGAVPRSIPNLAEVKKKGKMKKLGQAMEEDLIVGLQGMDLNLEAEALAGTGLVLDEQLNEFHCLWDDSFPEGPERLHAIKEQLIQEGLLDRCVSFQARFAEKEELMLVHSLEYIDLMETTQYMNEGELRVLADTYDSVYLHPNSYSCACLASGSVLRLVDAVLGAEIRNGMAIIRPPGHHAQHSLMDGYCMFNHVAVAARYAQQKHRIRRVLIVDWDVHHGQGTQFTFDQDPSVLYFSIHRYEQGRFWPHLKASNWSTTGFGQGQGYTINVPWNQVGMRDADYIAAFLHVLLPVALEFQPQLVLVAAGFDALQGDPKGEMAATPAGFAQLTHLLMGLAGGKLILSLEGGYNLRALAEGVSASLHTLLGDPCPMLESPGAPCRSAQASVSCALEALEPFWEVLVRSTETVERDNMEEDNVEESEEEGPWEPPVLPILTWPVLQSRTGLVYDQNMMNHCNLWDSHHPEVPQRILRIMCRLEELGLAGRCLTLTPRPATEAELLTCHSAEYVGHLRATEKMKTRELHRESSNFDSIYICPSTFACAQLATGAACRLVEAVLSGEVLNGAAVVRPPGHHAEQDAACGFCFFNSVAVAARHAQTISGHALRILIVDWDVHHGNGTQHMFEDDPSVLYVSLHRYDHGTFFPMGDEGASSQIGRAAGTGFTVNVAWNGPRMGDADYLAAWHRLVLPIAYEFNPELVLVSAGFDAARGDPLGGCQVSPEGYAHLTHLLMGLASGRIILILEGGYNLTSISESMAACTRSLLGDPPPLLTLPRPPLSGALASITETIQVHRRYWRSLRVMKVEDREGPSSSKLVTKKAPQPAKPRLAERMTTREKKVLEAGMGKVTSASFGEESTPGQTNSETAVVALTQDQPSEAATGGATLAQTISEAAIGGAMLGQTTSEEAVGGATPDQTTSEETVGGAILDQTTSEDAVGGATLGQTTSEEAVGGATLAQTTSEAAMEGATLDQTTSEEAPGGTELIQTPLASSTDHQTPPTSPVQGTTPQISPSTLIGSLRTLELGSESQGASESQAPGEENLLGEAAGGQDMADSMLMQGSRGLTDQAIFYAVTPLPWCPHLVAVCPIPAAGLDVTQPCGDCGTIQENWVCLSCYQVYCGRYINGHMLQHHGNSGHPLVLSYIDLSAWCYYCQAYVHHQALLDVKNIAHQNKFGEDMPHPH
Kind of test: Enzymatic HDAC selectivity panel, HDAC-6. The following applies: compound at 10 µM. As to the method: as §1
as §2, with “Three independent experiments were carried out in triplicate for all experiments.” left out, “In the absence of the test compound, the fluorescent intensity (Ft) in each dataset was defined as 100% activity, while in the absence of HDAC, the fluorescent intensity (Fb) in each dataset was set to 0% activity.” left out

The target in test [4] is T2, HDAC-7 (Homo sapiens, UniProt Q8WUI4).
T2 sequence (Q8WUI4 1-952): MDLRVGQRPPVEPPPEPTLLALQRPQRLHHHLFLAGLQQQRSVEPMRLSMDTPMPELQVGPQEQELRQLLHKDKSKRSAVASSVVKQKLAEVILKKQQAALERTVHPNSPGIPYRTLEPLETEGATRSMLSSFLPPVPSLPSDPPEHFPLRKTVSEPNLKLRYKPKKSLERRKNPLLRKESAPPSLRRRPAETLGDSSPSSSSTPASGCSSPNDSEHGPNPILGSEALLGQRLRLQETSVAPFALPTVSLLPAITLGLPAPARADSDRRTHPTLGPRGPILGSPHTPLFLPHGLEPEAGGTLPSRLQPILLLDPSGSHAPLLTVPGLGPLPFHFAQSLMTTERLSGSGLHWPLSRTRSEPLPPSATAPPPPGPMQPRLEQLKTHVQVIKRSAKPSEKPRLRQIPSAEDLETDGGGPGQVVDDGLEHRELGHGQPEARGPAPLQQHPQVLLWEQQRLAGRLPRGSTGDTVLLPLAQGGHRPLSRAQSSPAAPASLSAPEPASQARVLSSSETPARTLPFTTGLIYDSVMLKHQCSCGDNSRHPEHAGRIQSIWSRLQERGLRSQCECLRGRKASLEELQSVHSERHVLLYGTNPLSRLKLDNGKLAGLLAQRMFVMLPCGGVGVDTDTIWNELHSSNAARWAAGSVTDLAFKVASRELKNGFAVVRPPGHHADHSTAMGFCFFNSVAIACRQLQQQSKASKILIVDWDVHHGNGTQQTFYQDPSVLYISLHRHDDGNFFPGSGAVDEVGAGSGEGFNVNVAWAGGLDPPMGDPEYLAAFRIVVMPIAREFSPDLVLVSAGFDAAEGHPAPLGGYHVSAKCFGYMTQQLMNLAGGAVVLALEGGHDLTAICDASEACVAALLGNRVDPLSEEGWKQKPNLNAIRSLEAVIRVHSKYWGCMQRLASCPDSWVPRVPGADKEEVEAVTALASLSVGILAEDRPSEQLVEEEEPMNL
Kind of test: Enzymatic HDAC selectivity panel, HDAC-7. The conditions noted are these: compound at 10 µM. As to the method:
as §1
as §2, with “Three independent experiments were carried out in triplicate for all experiments.” left out, “In the absence of the test compound, the fluorescent intensity (Ft) in each dataset was defined as 100% activity, while in the absence of HDAC, the fluorescent intensity (Fb) in each dataset was set to 0% activity.” left out

Chain of HDAC-2 (Q92769 whole entry, canonical isoform): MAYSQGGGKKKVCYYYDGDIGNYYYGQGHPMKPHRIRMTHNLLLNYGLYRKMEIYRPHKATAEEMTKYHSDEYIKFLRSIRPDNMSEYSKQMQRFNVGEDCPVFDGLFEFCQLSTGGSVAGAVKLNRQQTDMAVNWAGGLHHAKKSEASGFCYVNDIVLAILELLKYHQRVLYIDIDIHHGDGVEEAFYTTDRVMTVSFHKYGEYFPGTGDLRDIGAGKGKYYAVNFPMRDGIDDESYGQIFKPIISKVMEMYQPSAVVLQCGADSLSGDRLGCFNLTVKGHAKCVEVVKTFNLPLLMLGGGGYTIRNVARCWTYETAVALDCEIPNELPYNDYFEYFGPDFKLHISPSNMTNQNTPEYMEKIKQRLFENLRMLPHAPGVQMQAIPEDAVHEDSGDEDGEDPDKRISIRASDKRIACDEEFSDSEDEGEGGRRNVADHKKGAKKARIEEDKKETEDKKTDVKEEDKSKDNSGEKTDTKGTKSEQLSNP

For `Nc1ccc(CCc2ccc(C(=O)Nc3ccccc3N)cc2)cc1` [Compound (5)], the inhibition at 10 µM was determined as 93% in test [1] (compound at 10 µM), 82 ± 1.2% in test [2], 3 ± 0.4% in test [3] and 15 ± 0.7% in test [4]. In addition, the HDAC-2 inhibition in test [1] (compound at 10 µM, 10 µM) is recorded as 92 ± 0.8%. In addition, it took 370 nM to reach half-maximal inhibition in test [1] (substrate 10 µM) (IC50).
